What all share (format): functional
For assay [1], the system named is Plasmodium berghei. In words: Change in mean survival time of trophozoite-induced Plasmodium berghei infection after 160 mg/kg subcutaneous dose.
Assay [2] deals with Mus musculus. In words: Number of deaths when administered as a single dose of 640 mg/kg (sc) 72-h postinfection in mice.
Assay [3] concerns Plasmodium berghei. The assay is described as follows: Change in mean survival time of trophozoite-induced Plasmodium berghei infection after 80 mg/kg subcutaneous dose.
Assay [4] deals with Mus musculus. In words: Number of deaths when administered as a single dose of 320 mg/kg (sc) 72-h postinfection in mice.
Assay [5] concerns Plasmodium berghei. The assay is described as follows: Change in mean survival time of trophozoite-induced Plasmodium berghei infection after 40 mg/kg subcutaneous dose.
Assay [6] relates to Plasmodium berghei. In words: Change in mean survival time of trophozoite-induced Plasmodium berghei infection after 20 mg/kg subcutaneous dose.

Turning to `CCN(CC)Cc1cc(Nc2cc[n+]([O-])c3cc(Cl)ccc23)cc(Cc2ccccc2)c1O`, the “Delta MST” value in the assay with Plasmodium berghei [1] was determined as 5.4 days; in the assay on Plasmodium berghei [3], 4.2 days; in the assay with Plasmodium berghei [5], 2 days; in the assay on Plasmodium berghei [6], 0.4 days. Further, the Deaths in the assay with Mus musculus [2] and with Mus musculus [4] was 14 in each case.

The values above are taken from ChEMBL document CHEMBL1123903, “Synthesis and antimalarial effects of 4-[(7-chloro-4-quinolinyl)amino]-2-[(diethylamino)methyl] -6-alkylphenols and their N omega-oxides” (1987).
